Measured values as given in patent US20220380319A1 (Bial - R&D Investments, S.A., priority 2019, published 2022).
In brackets after ≈: the same amount, converted by molar mass.

What was measured:
[1] = Compound solubility in water
acid ceramidase = target: T1, acid ceramidase (Homo sapiens, UniProt Q13510); assay: Acid ceramidase inhibition, biochemical fluorescent assay with cell lysates overexpressing acid ceramidase, substrate Rbm14-12; settings: substrate Rbm14-12 6.3 μM, pH 4.5, 1 hr preincubation at RT
T1 construct: Cell lysates overexpressing acid ceramidase were used as the enzyme source; expressed in transfected cells
T1 sequence (Q13510 22-395): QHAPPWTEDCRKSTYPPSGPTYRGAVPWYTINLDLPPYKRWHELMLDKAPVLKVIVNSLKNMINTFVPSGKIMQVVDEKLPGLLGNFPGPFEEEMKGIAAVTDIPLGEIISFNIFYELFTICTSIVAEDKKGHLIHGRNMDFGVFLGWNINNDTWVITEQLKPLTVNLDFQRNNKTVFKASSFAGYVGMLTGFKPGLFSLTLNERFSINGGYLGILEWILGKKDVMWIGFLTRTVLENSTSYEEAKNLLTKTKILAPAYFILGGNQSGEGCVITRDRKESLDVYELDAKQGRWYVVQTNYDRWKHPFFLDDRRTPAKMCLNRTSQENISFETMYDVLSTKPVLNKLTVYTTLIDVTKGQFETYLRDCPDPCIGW
Method: The ability of exemplary compounds to inhibit acid ceramidase was measured.
Cell lysates overexpressing acid ceramidase were used as the enzyme source for compound potency determination in a biochemical fluorescent assay. Briefly, compounds were preincubated with 10 μg protein of cell lysates in a dose-response manner for 1 hr at RT in the assay buffer containing 25 mM NaAC and 100 mM NaCl, pH 4.5. The reaction was initiated by the addition of substrate Rbm14-12 at a final concentration of 6.3 μM. The reaction was run at RT for 1 hr before it was stopped by the addition of the stopping buffer containing 20% methanol (v/v), 1 mg/ml NaIO4, 0.1 M glycine, pH 10.6. The samples were incubated with the stopping buffer at RT for 1 hr to allow the fluorescent product to be formed. Finally, the plate was read with SpectraMax i3 plate reader (Molecular Devices) at ex360 nm and em446 nm. Data were collected and used to determine the IC50 values of compounds by curve fitting to the four-parameter inhibition equation.

SMILES	solubility [1] [mg/mL]	IC50 (acid ceramidase) [µM]
CN1CCC(c2c(C(F)(F)F)ccc3c2ncn3C(=O)NCCc2ccccc2)CC1 [Example 55, 4-(1-Methylpiperidin-4-yl)-N-phenethyl-5-(trifluoromethyl)-1H-benzo[d]imidazole-1-carboxamide]	0.013 (≈ 30.2 µM)	< 0.2
CCCCNC(=O)n1cnc2c(C3CCN(C)CC3)c(C(F)(F)F)ccc21 [Example 56, N-Butyl-4-(1-methylpiperidin-4-yl)-5-(trifluoromethyl)-1H-benzo[d]imidazole-1-carboxamide]	0.0281 (≈ 73.5 µM)	> 1
CCCCNC(=O)n1cnc2c(C3CCN(C)CC3)cc(C(F)(F)F)cc21 [Example 57, N-Butyl-4-(1-methylpiperidin-4-yl)-6-(trifluoromethyl)-1H-benzo[d]imidazole-1-carboxamide]	0.0241 (≈ 63 µM)	< 0.2
CCCCNC(=O)n1cnc2c(C3CCN(C)CC3)cc(OC)cc21 [Example 58, N-Butyl-6-methoxy-4-(1-methylpiperidin-4-yl)-1H-benzo[d]imidazole-1-carboxamide]	0.0281 (≈ 81.6 µM)	0.2 to 1
O=C(NCCCc1ccccc1)n1cnc2ncccc21 [Example 59, N-(3-Phenylpropyl)-1H-imidazo[4,5-b]pyridine-1-carboxamide]	0.0246 (≈ 87.8 µM)	< 0.2
COc1nc2ncccc2n1C(=O)NCCCCc1ccccc1 [Example 61, 2-Methoxy-N-(4-phenylbutyl)-1H-imidazo[4,5-b]pyridine-1-carboxamide]	0.001 (≈ 3.08 µM)	< 0.2
O=C(NCCOc1ccccc1)n1cnc2ncccc21 [Example 62, N-(2-Phenoxyethyl)-1H-imidazo[4,5-b]pyridine-1-carboxamide]	0.0266 (≈ 94.2 µM)	< 0.2
O=C(NCCc1ccccc1)n1cnc2cc(F)ccc21 [Example 63, 5-Fluoro-N-phenethyl-1H-benzo[d]imidazole-1-carboxamide]	0.0026 (≈ 9.18 µM)	< 0.2
O=C(NCCc1ccccc1)n1cnc2c(F)cccc21 [Example 64, 4-Fluoro-N-phenethyl-1H-benzo[d]imidazole-1-carboxamide]	0.0036 (≈ 12.7 µM)	< 0.2
O=C(NCCc1ccccc1)n1cnc2ccc(C(F)(F)F)nc21 [Example 66a, N-Phenethyl-5-(trifluoromethyl)-3H-imidazo[4,5-b]pyridine-3-carboxamide]	0.006 (≈ 17.9 µM)	< 0.2
O=C(NCCc1ccccc1)n1cnc2nc(C(F)(F)F)ccc21 [Example 66b, N-phenethyl-5-(trifluoromethyl)-1H-imidazo[4,5-b]pyridine-1-carboxamide]	0.0129 (≈ 38.6 µM)	< 0.2
CCCCNC(=O)n1cnc2cc(F)ccc21 [Example 67, N-Butyl-5-fluoro-1H-benzo[d]imidazole-1-carboxamide]	0.0225 (≈ 95.6 µM)	< 0.2
CCCCNC(=O)n1cnc2c(F)cccc21 [Example 68, N-Butyl-4-fluoro-1H-benzo[d]imidazole-1-carboxamide]	0.0206 (≈ 87.6 µM)	< 0.2
CCCCNC(=O)n1cnc2ccc(F)cc21 [Example 69, N-Butyl-6-fluoro-1H-benzo[d]imidazole-1-carboxamide]	0.0202 (≈ 85.9 µM)	0.2 to 1
CCCCNC(=O)n1cnc2ccc(OC(F)(F)F)cc21 [Example 70a, N-Butyl-6-(trifluoromethoxy)-1H-benzo[d]imidazole-1-carboxamide]	0.0093 (≈ 30.9 µM)	< 0.2
CCCCNC(=O)n1cnc2cc(OC(F)(F)F)ccc21 [Example 70b, N-butyl-5-(trifluoromethoxy)-1H-benzo[d]imidazole-1-carboxamide]	0.0096 (≈ 31.9 µM)	< 0.2
COc1cccc2c1ncn2C(=O)NCCOc1ccccc1 [Example 71, 4-Methoxy-N-(2-phenoxyethyl)-1H-benzo[d]imidazole-1-carboxamide]	0.0091 (≈ 29.2 µM)	< 0.2
O=C(NCCOc1ccccc1)n1cnc2c(C(F)(F)F)cccc21 [Example 72, N-(2-Phenoxyethyl)-4-(trifluoromethyl)-1H-benzo[d]imidazole-1-carboxamide]	0.002 (≈ 5.73 µM)	< 0.2
O=C(NCCOc1ccccc1)n1cnc2c(F)cccc21 [Example 73, 4-Fluoro-N-(2-phenoxyethyl)-1H-benzo[d]imidazole-1-carboxamide]	0.0027 (≈ 9.02 µM)	< 0.2

SMILES	solubility [1] [mg/mL]	IC50 (acid ceramidase) [µM]
N#Cc1cccc2c1ncn2C(=O)NCCOc1ccccc1 [Example 74, 4-Cyano-N-(2-phenoxyethyl)-1H-benzo[d]imidazole-1-carboxamide]	0.0059 (≈ 19.3 µM)	< 0.2
COc1c(-c2cncnc2)ccc2c1ncn2C(=O)NCC(C)C [Example 75, N-isoButyl-4-methoxy-5-(pyrimidin-5-yl)-1H-benzo[d]imidazole-1-carboxamide]	0.027 (≈ 83 µM)	0.2 to 1
CC(C)CNC(=O)n1cnc2c(C(F)(F)F)c(-c3cncnc3)ccc21 [Example 76, N-iso-Butyl-5-(pyrimidin-5-yl)-4-(trifluoromethyl)-1H-benzo[d]imidazole-1-carboxamide]	0.01 (≈ 27.5 µM)	< 0.2
CC(C)CNC(=O)n1cnc2cc(-c3cncnc3)c(C(F)(F)F)cc21 [Example 77a, N-iso-Butyl-5-(pyrimidin-5-yl)-6-(trifluoromethyl)-1H-benzo[d]imidazole-1-carboxamide]	0.0145 (≈ 39.9 µM)	< 0.2
CC(C)CNC(=O)n1cnc2cc(C(F)(F)F)c(-c3cncnc3)cc21 [Example 77b, N-iso-butyl-6-(pyrimidin-5-yl)-5-(trifluoromethyl)-1H-benzo[d]imidazole-1-carboxamide]	0.0074 (≈ 20.4 µM)	< 0.2
CN1CCN(CCNC(=O)n2cnc3cc(C(F)(F)F)ccc32)CC1 [Example 78, N-(2-(4-Methylpiperazin-1-yl)ethyl)-5-(trifluoromethyl)-1H-benzo[d]imidazole-1-carboxamide]	0.0327 (≈ 92 µM)	> 1
COc1cc2c(cc1-c1cncnc1)ncn2C(=O)NCC(C)C [Example 79a, N-iso-Butyl-6-methoxy-5-(pyrimidin-5-yl)-1H-benzo[d]imidazole-1-carboxamide]	0.0222 (≈ 68.2 µM)	0.2 to 1
COc1cc2ncn(C(=O)NCC(C)C)c2cc1-c1cncnc1 [Example 79b, N-iso-butyl-5-methoxy-6-(pyrimidin-5-yl)-1H-benzo[d]imidazole-1-carboxamide]	0.0265 (≈ 81.4 µM)	< 0.2
O=C(NCCCC(F)(F)F)n1cnc2ccccc21 [Example 80, N-(4,4,4-Trifluorobutyl)-1H-benzo[d]imidazole-1-carboxamide]	0.0211 (≈ 77.8 µM)	< 0.2
COc1nc2ccc(-c3cncnc3)cc2n1C(=O)NCC(C)C [Example 81a, N-iso-Butyl-2-methoxy-6-(pyrimidin-5-yl)-1H-benzo[d]imidazole-1-carboxamide]	0.0228 (≈ 70.1 µM)	0.2 to 1
COc1nc2cc(-c3cncnc3)ccc2n1C(=O)NCC(C)C [Example 81b, N-iso-butyl-2-methoxy-5-(pyrimidin-5-yl)-1H-benzo[d]imidazole-1-carboxamide]	0.027 (≈ 83 µM)	0.2 to 1
CCCCNC(=O)n1c(OC)nc2ccc(-c3cncnc3)cc21 [Example 82a, N-Butyl-2-methoxy-6-(pyrimidin-5-yl)-1H-benzo[d]imidazole-1-carboxamide]	0.0218 (≈ 67 µM)	0.2 to 1
CCCCNC(=O)n1c(OC)nc2cc(-c3cncnc3)ccc21 [Example 82b, N-Butyl-2-methoxy-5-(pyrimidin-5-yl)-1H-benzo[d]imidazole-1-carboxamide]	0.0245 (≈ 75.3 µM)	0.2 to 1
COc1nc2cc(-c3cccnc3)cnc2n1C(=O)NCC(C)C [Example 83, N-iso-Butyl-2-methoxy-6-(pyridin-3-yl)-3H-imidazo[4,5-b]pyridine-3-carboxamide]	0.0169 (≈ 51.9 µM)	0.2 to 1
CCCCNC(=O)n1c(=O)n(C)c2nc(-c3cncnc3)ccc21 [Example 84, N-Butyl-3-methyl-2-oxo-5-(pyrimidin-5-yl)-2,3-dihydro-1H-imidazo[4,5-b]pyridine-1-carboxamide]	0.0009 (≈ 2.76 µM)	0.2 to 1
CCCCNC(=O)n1c(OC)nc2ccc(-c3cncnc3)nc21 [Example 85a, N-Butyl-2-methoxy-5-(pyrimidin-5-yl)-3H-imidazo[4,5-b]pyridine-3-carboxamide]	0.04 (≈ 123 µM)	< 0.2
CCCCNC(=O)n1c(OC)nc2nc(-c3cncnc3)ccc21 [Example 85b, N-butyl-2-methoxy-5-(pyrimidin-5-yl)-1H-imidazo[4,5-b]pyridine-1-carboxamide]	0.054 (≈ 165 µM)	< 0.2
CN1CCC(Oc2cccc3c2ncn3C(=O)NCCc2ccccc2)CC1 [Example 86, 4-((1-Methylpiperidin-4-yl)oxy)-N-phenethyl-1H-benzo[d]imidazole-1-carboxamide]	0.0265 (≈ 70 µM)	< 0.2
